Measurements reported in patent US20030013656A1, “Pyruvate derivatives” (priority 2001, published 2003).

test system: rat middle cerebral artery occlusion (MCAO) model; experiment: Rat middle cerebral artery occlusion (MCAO) model of cerebral ischemia; type: in vivo; settings: 2 h, doses in the range of less than about 1 μg/kg to less than about 10 mg/kg, two hours MCAO, read-out: reduction in total infarct volume
Experimental: Male Wistar rats (Harlan, Ind.) weighing 300-350 g are commonly used in these experiments. Animals are allowed free access to water and commercial rodent diet under standard laboratory conditions. Room temperature is maintained at 20-23° C. and room illumination is on a 12/12-hour light/dark cycle. Animals are acclimatized to the laboratory environment 5 to 7 days prior to the study, and fasted (with free access to water) overnight before surgery.
Anesthesia is maintained by inhalation of 3.0% isoflurane (Aerrane, Front Dodge, Iowa) in […]. The animal's neck is shaved and sterilized before operation. Body temperatures are controlled and maintained at 37.5° C.+/−1 degree via external heating and cooling devices. To lower the body temperature, animals are placed in a cooling chamber that uses ice to cool circulating air. Throughout the study the body temperature is recorded using a temperature transponder (BMDS Inc., Seaford, Del.) implanted subcutaneously at the time of MCAO between the rat shoulder blades, which allows the user to read the body temperature via a pocket scanner (BMDS Inc., Seaford, Del.). The body temperature can also be taken by inserting the temperature probe into the animal's rectum. Body temperature is recorded every hour for 6 hours post-occlusion, but temperature is measured more frequently to facilitate maintaining the animals' normothermic temperature.
Animals are subjected to two hours MCAO using a modified intraluminal filament technique, as follows. A midline incision on the ventral part of the neck is made to expose external and internal carotid arteries. The right external and common carotid arteries are ligated by a suture (silk 5/0, Carlisle Laboratories, Farmers Branch, Tex.) and the right internal artery is temporarily ligated using a microvascular clip (Fine Science Tool Inc., Foster City, Calif.). A small incision is made in the common carotid artery. A nylon filament, its tip rounded by heating, is prepared from a fishing line (Stren Fishing Lines, Wilmington, Del.) and is inserted from the right common carotid artery. The filament is advanced into the internal carotid artery 18-20 mm from the point of bifurcation of internal and external arteries and a suture is tightly ligated around the filament. Two hours post occlusion, animals are re-anesthetized to allow reperfusion for the remaining of the experiment by removal of the filament. C. Drug Administration
Test compounds can be administered by any of a number of routes, such as those described below. Compounds can be administered before, during or after occlusion, as appropriate to the protocol.
One hour after MCAO, the animal is gently held by its tail and observed for forelimb flexion. Then the animal is placed on the floor to be observed for walking pattern; only the animals that score 3 on the Bederson grading system (Table 1) are included in the study.
Twenty-four hours post-MCAO, or longer in some experiments, animals are sacrificed by CO2 asphyxiation (dry ice). The brain is quickly removed from the skull, using standard procedures, rinsed in chilled saline solution, and placed on a rat brain tissue slicer (ASI instrument, MI). Seven 2-mm thick coronal slices are cut from each brain using razor blades. The slices are immersed in 0.9% saline containing 1.0% 2,3,5-triphenyltetrazolume chloride (TTC) (Sigma Chemical Co., St. Louis, Mo.) and incubated in a 37° C. water bath for 30 minutes.
After staining, each 2-mm slice is photographed with a TMC-7 camera (JH Technologies, Ca) which is directly connected to a desktop PC to capture and save the image of each brain slice. This image is used for the measurements of the regions of interest using a computer-based image processing system (Metamorph).
To measure each area, the region of interest is selected using a freehand selection tool, the area is automatically computed by selecting the measure command. […]

| Compound | inhibition in vivo at up to 10 mg/kg [%] |
| --- | --- |
| NC(CCC(=O)NC(CSCC(=O)C(=O)N1CCCCC1)C(=O)NCC(=O)O)C(=O)O (centres unmarked) [2-Amino-4-[1-(carboxymethyl-carbamoyl)-2-(2,3-dioxo-3-piperidin-1-yl-propylsulfanyl)-ethylcarbamoyl]-butyric acid] | 20 to 80 |
| CCOC(=O)/C(CSCC(NC(=O)CCC(N)C(=O)O)C(=O)NCC(=O)O)=N\OC (centres unmarked) [2-Amino-4-[1-(carboxymethyl-carbamoyl)-2-(2-ethoxycarbonyl-2-methoxyimino-ethylsulfanyl)-ethylcarbamoyl]-butyric acid] | 20 to 80 |
| NC(CCC(=O)NC(CSCC(=NO)C(=O)N1CCCCC1)C(=O)NCC(=O)O)C(=O)O (centres unmarked) [2-Amino-4-[1-(carboxymethyl-carbamoyl)-2-(2-hydroxyimino-3-oxo-3-piperidin-1-yl-propylsulfanyl)-ethylcarbamoyl]-butyric acid] | 20 to 80 |
| CCCCOC(=O)C(CSCC(NC(=O)CCC(N)C(=O)O)C(=O)NCC(=O)O)=NOCc1ccccc1 (centres unmarked) [2-Amino-4-[2-(2-benzyloxyimino-2-butoxycarbonyl-ethylsulfanyl)-1-(carboxymethyl-carbamoyl)-ethylcarbamoyl]-butyric acid] | 20 to 80 |
| CCCCOC(=O)C(CSCC(NC(=O)CCC(N)C(=O)O)C(=O)NCC(=O)O)=NOC (centres unmarked) [2-Amino-4-[2-(2-butoxycarbonyl-2-methoxyimino-ethylsulfanyl)-1-(carboxymethyl-carbamoyl)-ethylcarbamoyl]-butyric acid] | 20 to 80 |
| COC(=O)C(Cc1ccccc1)NC(=O)C(=O)CSCC(NC(=O)CCC(N)C(=O)O)C(=O)NCC(=O)O (centres unmarked) [2-Amino-4-{1-(carboxymethyl-carbamoyl)-2-[2-(1-methoxycarbonyl-2-phenyl-ethylcarbamoyl)-2-oxo-ethylsulfanyl]-ethylcarbamoyl}-butyric acid] | 20 to 80 |
| CCOC(=O)C(N)CCC(=O)NC(CSCC(=O)C(=O)O)C(=O)NCC(=O)O (centres unmarked) [2-amino-4-[1-(carboxymethyl-carbamoyl)-2-(2-carboxy-2-oxo-ethylsulfanyl)-ethylcarbamoyl]-butyric acid ethyl ester] | 20 to 80 |
| NC(CCC(=O)NC(CSCC(=O)C(=O)O)C(=O)NCC(=O)O)C(=O)O (centres unmarked) [2-amino-4-[1-(carboxymethyl-carbamoyl)-2-(2-carboxy-2-oxo-ethylsulfanyl)-ethylcarbamoyl]-butyric acid] | 20 to 80 |
| CCOC(=O)C(CSCC(NC(=O)CCC(N)C(=O)O)C(=O)NCC(=O)O)=NO (centres unmarked) [2-amino-4-[1-(carboxymethyl-carbamoyl)-2-(2-ethoxycarbonyl-2-hydroxyimino-ethylsulfanyl)-ethylcarbamoyl]-butyric acid] | 20 to 80 |
| CCCCCCOC(=O)C(=O)CSCC(NC(=O)CCC(N)C(=O)O)C(=O)NCC(=O)O (centres unmarked) [2-amino-4-[1-(carboxymethyl-carbamoyl)-2-(2-hexyloxycarbonyl-2-oxo-ethylsulfanyl)-ethylcarbamoyl]-butyric acid] | 20 to 80 |
| CCOC(=O)C(=O)CSc1nc2ccccc2[nH]1 [3-(1H-Benzoimidazol-2-ylsulfanyl)-2-oxo-propionic acid ethyl ester] | 20 to 80 |
| CCOC(=O)C(=O)CSC1=NCCS1 [3-(4,5-dihydro-thiazol-2-ylsulfanyl)-2-oxo-propionic acid ethyl ester] | 20 to 80 |
| CCOC(=O)C(=O)CSc1nc2cc(OC)ccc2[nH]1 [3-(5-methoxy-1H-benzoimidazol-2-ylsulfanyl)-2-oxo-propionic acid ethyl ester] | 20 to 80 |
| CCOC(=O)C(=O)CSc1nc2cc([N+](=O)[O-])ccc2[nH]1 [3-(5-nitro-1H-benzoimidazol-2-ylsulfanyl)-2-oxo-propionic acid ethyl ester] | 20 to 80 |
